Measured values as given in BindingDB's records for doi:10.1016/j.bmcl.2009.10.040 (Methylgene, 2009).
pIC50: −log10 of the molar value.

Columns and labels:
[1] = Inhibition of c-Met in human A549 cells by wound healing assay
[2] = Inhibition of c-Met in human DU145 cells assessed as cell scattering

- pIC50 [1]: 7.10
- pIC50 [2]: 7.10
Structure (SMILES): COc1cc2nccc(Oc3ccc(NC(=O)N4CCN(c5ccccc5)C4=O)cc3F)c2cc1OC
